Results as given in US8747810B2, “Compositions and methods for imaging tissues, organs and tumors” (President and Fellows of Harvard College, priority 2009, dated 2014).

System: B16F10 melanoma tumors
Test: In vivo biodistribution of 99mTc complexes in C57B16 mice bearing B16F10 melanoma tumors
Conditions: for mel/blood: melanoma/blood ratio; for mel/liver: melanoma/liver ratio; for mel/lung: melanoma/lung ratio; for mel/spleen: melanoma/spleen ratio
Protocol: To study the tumor uptake of ^99mTc complexes, ^99mTc-Z2-^99mTc-Z4, in vivo biodistribution experiment at 1, 3, 6 hours post intra-venous injection of the ^99mTc-complex were carried out in C57B16 mice bearing B16F10 melanoma tumors. The biodistribution data including melanoma/nontumor (M/NT) ratios for selected organs are summarized in Table 2 as percentage injected dose per gram (% ID/g) (Table 2). […] This is due to washout from no-tumor organs and increased retention in the tumor.

[1] = 3 h postinjection, listed as 99mTc-Z2

O=C1C[S][99Tc-]23(=[O])[S]CC[N+]2(CCCN2CCCCC2)CC[N]13 (centres unmarked) [Tc-Z4]
Eyes (1 h postinjection): 6.72 ± 0.77 % ID/g
blood (1 h postinjection): 0.33 ± 0.03 % ID/g
brain (1 h postinjection): 0.16 ± 0.01 % ID/g
heart (1 h postinjection): 0.59 ± 0.07 % ID/g
kidney (1 h postinjection): 2.50 ± 0.32 % ID/g
liver (1 h postinjection): 20.32 ± 1.0 % ID/g
lung (1 h postinjection): 2.37 ± 0.17 % ID/g
melanoma (tumor uptake) (1 h postinjection): 3.43 ± 0.70 % ID/g
muscle (1 h postinjection): 0.63 ± 0.17 % ID/g
spleen (1 h postinjection): 1.37 ± 0.19 % ID/g
mel/blood (1 h postinjection): 10.50 ± 1.9
mel/liver (1 h postinjection): 0.17 ± 0.03
mel/lung (1 h postinjection): 1.45 ± 0.30
mel/spleen (1 h postinjection): 2.49 ± 0.24
Eyes (3 h postinjection): 7.19 ± 1.40 % ID/g
blood (3 h postinjection): 0.34 ± 0.09 % ID/g
brain (3 h postinjection): 0.18 ± 0.04 % ID/g
heart (3 h postinjection): 0.63 ± 0.07 % ID/g
kidney (3 h postinjection): 2.73 ± 0.76 % ID/g
liver (3 h postinjection): 16.67 ± 3.8 % ID/g
lung (3 h postinjection): 2.36 ± 0.54 % ID/g
melanoma (tumor uptake) (3 h postinjection): 3.59 ± 1.76 % ID/g
muscle (3 h postinjection): 0.70 ± 0.52 % ID/g
spleen (3 h postinjection): 1.22 ± 0.42 % ID/g
mel/blood (3 h postinjection): 9.22 ± 4.93
mel/liver (3 h postinjection): 0.15 ± 0.09
mel/lung (3 h postinjection): 1.30 ± 0.67
mel/spleen (3 h postinjection): 2.57 ± 1.21
Eyes (6 h postinjection): 7.01 ± 0.41 % ID/g
blood (6 h postinjection): 0.14 ± 0.03 % ID/g
brain (6 h postinjection): 0.02 ± 0.01 % ID/g
heart (6 h postinjection): 0.25 ± 0.06 % ID/g
kidney (6 h postinjection): 1.07 ± 0.17 % ID/g
liver (6 h postinjection): 12.9 ± 1.72 % ID/g
lung (6 h postinjection): 0.91 ± 0.24 % ID/g
melanoma (tumor uptake) (6 h postinjection): 3.52 ± 0.88 % ID/g
muscle (6 h postinjection): 0.09 ± 0.02 % ID/g
spleen (6 h postinjection): 0.58 ± 0.20 % ID/g
mel/blood (6 h postinjection): 24.95 ± 4.6
mel/liver (6 h postinjection): 0.28 ± 0.08
mel/lung (6 h postinjection): 3.99 ± 1.10
mel/spleen (6 h postinjection): 6.44 ± 2.12

O=C1C[S][99Tc-]23(=[O])[S]CC[N+]2(CCN2CCCCC2)CC[N]13 (centres unmarked) [Tc-Z2]
Eyes (1 h postinjection): 13.57 ± 2.1 % ID/g
blood (1 h postinjection): 0.41 ± 0.08 % ID/g
brain (1 h postinjection): 0.13 ± 0.03 % ID/g
heart (1 h postinjection): 0.62 ± 0.10 % ID/g
kidney (1 h postinjection): 3.50 ± 0.95 % ID/g
liver (1 h postinjection): 10.28 ± 2.9 % ID/g
lung (1 h postinjection): 1.29 ± 0.36 % ID/g
melanoma (tumor uptake) (1 h postinjection): 8.52 ± 0.08 % ID/g
muscle (1 h postinjection): 0.36 ± 0.06 % ID/g
spleen (1 h postinjection): 0.90 ± 0.22 % ID/g
melanoma (tumor uptake) (1 h postinjection, listed as 99mTc-Z2): 8.52 % ID/g
mel/blood (1 h postinjection): 16.49 ± 6.7
mel/liver (1 h postinjection): 0.64 ± 0.21
mel/lung (1 h postinjection): 4.93 ± 1.13
mel/spleen (1 h postinjection): 7.94 ± 2.79
Eyes (3 h postinjection): 13.55 ± 2.49 % ID/g
blood (3 h postinjection): 0.22 ± 0.02 % ID/g
brain (3 h postinjection): 0.06 ± 0.01 % ID/g
heart (3 h postinjection): 0.22 ± 0.02 % ID/g
kidney (3 h postinjection): 1.64 ± 0.15 % ID/g
liver (3 h postinjection): 3.32 ± 0.67 % ID/g
lung (3 h postinjection): 0.49 ± 0.03 % ID/g
melanoma (tumor uptake) (3 h postinjection): 7.56 ± 1.69 % ID/g
muscle (3 h postinjection): 0.11 ± 0.01 % ID/g
spleen (3 h postinjection): 0.93 ± 0.78 % ID/g
melanoma (tumor uptake) [1]: 7.56 % ID/g
mel/blood (3 h postinjection): 34.80 ± 10.2
mel/liver (3 h postinjection): 2.29 ± 0.30
mel/liver [1]: 2.29
mel/lung (3 h postinjection): 15.48 ± 3.91
mel/spleen (3 h postinjection): 17.28 ± 10.2
Eyes (6 h postinjection): 8.89 ± 1.55 % ID/g
blood (6 h postinjection): 0.12 ± 0.02 % ID/g
brain (6 h postinjection): 0.03 ± 0.01 % ID/g
heart (6 h postinjection): 0.10 ± 0.02 % ID/g
kidney (6 h postinjection): 0.84 ± 0.08 % ID/g
liver (6 h postinjection): 3.10 ± 0.31 % ID/g
lung (6 h postinjection): 0.31 ± 0.03 % ID/g
melanoma (tumor uptake) (6 h postinjection): 5.39 ± 0.36 % ID/g
muscle (6 h postinjection): 0.04 ± 0.01 % ID/g
spleen (6 h postinjection): 1.19 ± 0.6 % ID/g
melanoma (tumor uptake) (6 h postinjection, listed as 99mTc-Z2): 3.71 % ID/g
mel/blood (6 h postinjection): 43.14 ± 4.9
mel/liver (6 h postinjection): 1.71 ± 0.13
mel/lung (6 h postinjection): 16.9 ± 1.41
mel/spleen (6 h postinjection): 5.10 ± 2.59
tumor retention (in words) (over time): significant tumor retention
